This assay has as its target T1, crosslinked smooth muscle actomyosin (chicken gizzard smooth muscle myosin subfragment-1 crosslinked to cardiac or skeletal actin) (Gallus gallus, UniProt P10587).
T1 construct: chicken gizzard smooth muscle myosin subfragment-1; from tissue; host or cells: chicken gizzard
The experiment in a line: Lead optimization pyruvate kinase/horseradish peroxidase/pyruvate oxidase-coupled ATPase assay (compound dose response). Conditions: read-out: IC50 Arithmetic Mean. It counts as biochemical. The procedure, abridged:
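IC50 is the midpoint of a 4-parameter dose–response fit of Amplex Red fluorescence (480/615 nm). Buffer was 12 mM potassium PIPES pH 7.00 at 22 °C with 100 mM KCl, 2 mM MgCl2, 0.15 mM ATP and 2 mM phosphate, with PK/pyruvate oxidase/HRP coupling. Enzyme: smooth muscle myosin S1 crosslinked to cardiac or skeletal actin, dosed empirically by activity.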

Our source for the IC50 values is patent US8071625B2, “Certain chemical entities, compositions, and methods” (Cytokinetics, Inc., priority 2006, dated 2011).

Regarding `CCc1ccc(NC(=O)OCC2(C(=O)NCc3ccccc3Cl)CCN(C(=O)C3CCN3C(=O)OC(C)(C)C)CC2)cc1` (stereo not shown) [tert-butyl 2-[(4-{N-[(2-chlorophenyl)methyl]carbamoyl}-4-{[N-(4-ethylphenyl)carbamoyloxy]methyl}piperidyl)carbonyl]azetidinecarboxylate], the half-inhibitory concentration (IC50) came out at 4830 nM. `CCc1ccc(NC(=O)OCC2(C(=O)NCc3ccccc3Cl)CCN(C(=O)C3COCCN3C(=O)OC(C)(C)C)CC2)cc1` (stereo not shown) [tert-butyl 3-[(4-{N-[(2-chlorophenyl)methyl]carbamoyl}-4-{[N-(4-ethylphenyl)carbamoyloxy]methyl}piperidyl)carbonyl]morpholine-4-carboxylate]: the IC50 turned out to be 1680 nM. For the compound `CCc1ccc(NC(=O)OCC2(C(=O)NCc3ccccc3Cl)CCN(C(=O)OC(C)(C)C)CC2)cc1` [tert-butyl 4-{N-[(2-chlorophenyl)methyl]carbamoyl}-4-{[N-(4-ethylphenyl)carbamoyloxy]methyl}piperidinecarboxylate], the IC50 is 3210 nM. With `NCC(=O)N1CCC(COC(=O)Nc2ccc3ccccc3c2)(C(=O)NCc2ccccc2Cl)CC1` [{1-(2-aminoacetyl)-4-[(N-(2-naphthyl)carbamoyloxy)methyl](4-piperidyl)}-N-[(2-chlorophenyl)methyl]carboxamide] the figure was 83 nM. The value for `NCC(=O)N1CCC(COC(=O)Nc2ccc3c(c2)CCC3)(C(=O)NCc2ccccc2Cl)CC1` [{1-(2-aminoacetyl)-4-[(N-indan-5-ylcarbamoyloxy)methyl](4-piperidyl)}-N-[(2-chlorophenyl)methyl]carboxamide] was 126 nM; that for `NCC(=O)N1CCC(COC(=O)Nc2ccccc2)(C(=O)NCc2ccccc2Cl)CC1` [{1-(2-aminoacetyl)-4-[(N-phenylcarbamoyloxy)methyl](4-piperidyl)}-N-[(2-chlorophenyl)methyl]carboxamide] was 9210 nM; that for `CCc1ccc(NC(=O)OC2CCCN(C(=O)NCc3ccccc3C)C2)cc1` (stereo not shown) [{3-[N-(4-ethylphenyl)carbamoyloxy]piperidyl}-N-[(2-methylphenyl)methyl]carboxamide] was 5540 nM. The value for `CCc1ccc(NC(=O)O[C@@H]2CCCN(C(=O)NCc3ccccc3Cl)C2)cc1` [{(3R)-3-[N-(4-ethylphenyl)carbamoyloxy]piperidyl}-N-[(2-chlorophenyl)methyl]carboxamide] was 1560 nM; that for `CCc1ccc(NC(=O)O[C@H]2CCCN(C(=O)NCc3ccccc3Cl)C2)cc1` [{(3S)-3-[N-(4-ethylphenyl)carbamoyloxy]piperidyl}-N-[(2-chlorophenyl)methyl]carboxamide] was 10200 nM; that for `CCc1ccc(NC(=O)OCC2(C(=O)NCc3ccccc3C(F)(F)F)CCN(C(=O)CN)CC2)cc1` [{[1-(2-aminoacetyl)-4-(N-{[2-(trifluoromethyl)phenyl]methyl}carbamoyl)(4-piperidyl)]methoxy}-N-(4-ethylphenyl)carboxamide] was 86 nM. `CCc1ccc(NC(=O)OCC2(C(=O)NCc3ccc(C(F)(F)F)cc3F)CCN(C(=O)CN)CC2)cc1` [{[1-(2-aminoacetyl)-4-(N-{[2-fluoro-4-(trifluoromethyl)phenyl]methyl}carbamoyl)(4-piperidyl)]methoxy}-N-(4-ethylphenyl)carboxamide]: the IC50 turned out to be 11800 nM. With `CCc1ccc(NC(=O)OCCN(C)C(=O)NCc2cccc(Cl)c2Cl)cc1` [{[(2,3-dichlorophenyl)methyl]amino}-N-{2-[N-(4-ethylphenyl)carbamoyloxy]ethyl}-N-methylcarboxamide] the figure was 59 nM; with `CN(CCOC(=O)Nc1ccc2ccccc2c1)C(=O)NCc1ccccc1Cl` [{[(2-chlorophenyl)methyl]amino}-N-methyl-N-[2-(N-(2-naphthyl)carbamoyloxy)ethyl]carboxamide], 30 nM; with `CN(CCOC(=O)Nc1ccc2ncccc2c1)C(=O)NCc1ccccc1Cl` [{[(2-chlorophenyl)methyl]amino}-N-methyl-N-[2-(N-(6-quinolyl)carbamoyloxy)ethyl]carboxamide], 1410 nM. With `CN(CCOC(=O)Nc1ccc(-c2ccccc2)cc1)C(=O)NCc1ccccc1Cl` [{[(2-chlorophenyl)methyl]amino}-N-methyl-N-{2-[N-(4-phenylphenyl)carbamoyloxy]ethyl}carboxamide] the figure was 248 nM; with `CCc1ccc(NC(=O)OCC(C)(C)N(C)C(=O)NCc2ccccc2Cl)cc1` [{[(2-chlorophenyl)methyl]amino}-N-{2-[N-(4-ethylphenyl)carbamoyloxy]-tert-butyl}-N-methylcarboxamide], 621 nM. The value for `CCc1ccc(NC(=O)OCCN(CCCCO)C(=O)NCc2ccccc2Cl)cc1` [{[(2-chlorophenyl)methyl]amino}-N-{2-[N-(4-ethylphenyl)carbamoyloxy]ethyl}-N-(4-hydroxybutyl) carboxamide] was 355 nM; that for `CCc1ccc(NC(=O)OCCN(CCNC)C(=O)NCc2ccccc2Cl)cc1` [{[(2-chlorophenyl)methyl]amino}-N-{2-[N-(4-ethylphenyl)carbamoyloxy]ethyl}-N-[2-(methylamino)ethyl]carboxamide] was 16300 nM; that for `CCc1ccc(NC(=O)OCCN(C)C(=O)NCc2ccccc2Cl)cc1` [{[(2-chlorophenyl)methyl]amino}-N-{2-[N-(4-ethylphenyl)carbamoyloxy]ethyl}-N-methylcarboxamide] was 84 nM. Take `CCc1ccc(NC(=O)OCCCN(C)C(=O)NCc2ccccc2Cl)cc1` [{[(2-chlorophenyl)methyl]amino}-N-{3-[N-(4-ethylphenyl)carbamoyloxy]propyl}-N-methylcarboxamide]: the 50% inhibitory concentration (IC50) was 1670 nM.

With `CCc1ccc(NC(=O)OCCCCN(C)C(=O)NCc2ccccc2Cl)cc1` [{[(2-chlorophenyl)methyl]amino}-N-{4-[N-(4-ethylphenyl)carbamoyloxy]butyl}-N-methylcarboxamide], the half-maximal inhibitory concentration (IC50) was 6070 nM. `CCc1ccc(NC(=O)OCCN(C)C(=O)N(C)Cc2ccccc2Cl)cc1` [{[(2-chlorophenyl)methyl]methylamino}-N-{2-[N-(4-ethylphenyl)carbamoyloxy]ethyl}-N-methylcarboxamide]: the IC50 came out at 2080 nM.

With “(tert-butoxy)-N-[2-(3-{N-[(2-chlorophenyl)methyl]carbamoyl}-3-{[N-(4-ethylphenyl)carbamoyloxy]methyl}piperidyl)-2-oxoethyl]carboxamide”, the IC50 amounted to 1430 nM. The value for “methyl (3S)-3-amino-4-(4-{N-[(2-chlorophenyl)methyl]carbamoyl}-4-{[N-(4-ethylphenyl)carbamoyloxy]methyl}piperidyl)-4-oxobutanoate” was 1120 nM; that for “tert-butyl 4-[(4-{N-[(2-chlorophenyl)methyl]carbamoyl}-4-{[N-(4-ethylphenyl)carbamoyloxy]methyl}piperidyl)carbonyl]piperidinecarboxylate” was 3550 nM.

A word on the IC50: it is the concentration at which inhibition is half-maximal.
